In PubChem BioAssay (NCI):
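Grown in 96-well plates, cells were treated for 48 hours with each compound at five concentrations. Insufficient inhibition: endpoint recorded as highest concentration tested. Abbreviation: GI50, concentration required for 50% inhibition of growth. TGI denotes the concentration required for complete inhibition of growth.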

Tests used:
Test in all cases: DTP human tumour cell line panel, 48 h
MDA-MB-435 = tested on: MDA-MB-435
SF-268 CNS = tested on: SF-268 CNS
OVCAR-8 ovarian = tested on: OVCAR-8 ovarian
EKVX NSCLC = tested on: EKVX NSCLC
PC-3 prostate = tested on: PC-3 prostate
MALME-3M melanoma = tested on: MALME-3M melanoma
UACC-62 melanoma = tested on: UACC-62 melanoma
DU-145 prostate = tested on: DU-145 prostate
MCF7 breast = tested on: MCF7 breast
SW-620 colon = tested on: SW-620 colon
MOLT-4 leukemia = tested on: MOLT-4 leukemia
786-0 renal = tested on: 786-0 renal
CAKI-1 renal = tested on: CAKI-1 renal
U251 CNS = tested on: U251 CNS
SN12C renal = tested on: SN12C renal
HS 578T breast = tested on: HS 578T breast
SR leukemia = tested on: SR leukemia
A498 renal = tested on: A498 renal
NCI-H522 lung = tested on: NCI-H522 lung
HL-60(TB) leukemia = tested on: HL-60(TB) leukemia
RPMI-8226 leukemia = tested on: RPMI-8226 leukemia
SNB-75 CNS = tested on: SNB-75 CNS
HCC-2998 colon = tested on: HCC-2998 colon
SK-MEL-2 melanoma = tested on: SK-MEL-2 melanoma
SF-295 CNS = tested on: SF-295 CNS
HT29 colon = tested on: HT29 colon
MDA-MB-231 breast = tested on: MDA-MB-231 breast
SF-539 CNS = tested on: SF-539 CNS
NCI-H23 lung = tested on: NCI-H23 lung
RXF 393 renal = tested on: RXF 393 renal
HCT-116 colon = tested on: HCT-116 colon
UACC-257 melanoma = tested on: UACC-257 melanoma
OVCAR-4 ovarian = tested on: OVCAR-4 ovarian
CCRF-CEM leukemia = tested on: CCRF-CEM leukemia
NCI/ADR-RES ovarian = tested on: NCI/ADR-RES ovarian
A549 NSCLC = tested on: A549 NSCLC
HOP-92 NSCLC = tested on: HOP-92 NSCLC
BT-549 breast = tested on: BT-549 breast
SK-MEL-28 melanoma = tested on: SK-MEL-28 melanoma
UO-31 renal = tested on: UO-31 renal
OVCAR-3 ovarian = tested on: OVCAR-3 ovarian
LOX IMVI melanoma = tested on: LOX IMVI melanoma
NCI-H226 lung = tested on: NCI-H226 lung
HOP-62 NSCLC = tested on: HOP-62 NSCLC
IGROV1 ovarian = tested on: IGROV1 ovarian
M14 melanoma = tested on: M14 melanoma
ACHN renal = tested on: ACHN renal
HCT-15 colon = tested on: HCT-15 colon
SK-MEL-5 melanoma = tested on: SK-MEL-5 melanoma
KM12 colon = tested on: KM12 colon
OVCAR-5 ovarian = tested on: OVCAR-5 ovarian
K-562 leukemia = tested on: K-562 leukemia
SK-OV-3 ovarian = tested on: SK-OV-3 ovarian
SNB-19 CNS = tested on: SNB-19 CNS
T-47D breast = tested on: T-47D breast
NCI-H460 lung = tested on: NCI-H460 lung
COLO 205 colon = tested on: COLO 205 colon
TK-10 renal = tested on: TK-10 renal

SMILES: Cn1nc(N)c2cc([C@@H]3Nc4ccc5[nH]ncc5c4[C@H]4C5CCC(C5)[C@@H]34)ccc21 (stereo partly specified)
- GI50 (MDA-MB-435): 166 nM
- TGI (MDA-MB-435): 437 nM
- GI50 (SF-268 CNS): 1320 nM
- TGI (SF-268 CNS): 41 µM
- GI50 (OVCAR-8 ovarian): 979 nM
- TGI (OVCAR-8 ovarian): > 88.2 µM
- GI50 (EKVX NSCLC): 732 nM
- TGI (EKVX NSCLC): 67 µM
- GI50 (PC-3 prostate): 418 nM
- TGI (PC-3 prostate): 19.8 µM
- GI50 (MALME-3M melanoma): 442 nM
- TGI (MALME-3M melanoma): 32.7 µM
- GI50 (UACC-62 melanoma): 425 nM
- TGI (UACC-62 melanoma): 17.7 µM
- GI50 (DU-145 prostate): 438 nM
- TGI (DU-145 prostate): 37.7 µM
- GI50 (MCF7 breast): 327 nM
- TGI (MCF7 breast): 18.4 µM
- GI50 (SW-620 colon): 391 nM
- TGI (SW-620 colon): 28 µM
- GI50 (MOLT-4 leukemia): 556 nM
- TGI (MOLT-4 leukemia): > 51 µM
- GI50 (786-0 renal): 586 nM
- TGI (786-0 renal): 18.1 µM
- GI50 (CAKI-1 renal): 334 nM
- TGI (CAKI-1 renal): 33.4 µM
- GI50 (U251 CNS): 618 nM
- TGI (U251 CNS): 23.2 µM
- GI50 (SN12C renal): 612 nM
- TGI (SN12C renal): 21.2 µM
- GI50 (HS 578T breast): 373 nM
- TGI (HS 578T breast): 43.4 µM
- GI50 (SR leukemia): 426 nM
- TGI (SR leukemia): > 100 µM
- GI50 (A498 renal): 225 nM
- TGI (A498 renal): 1150 nM
- GI50 (NCI-H522 lung): 474 nM
- TGI (NCI-H522 lung): 24 µM
- GI50 (HL-60(TB) leukemia): 381 nM
- TGI (HL-60(TB) leukemia): 6.46 µM
- GI50 (RPMI-8226 leukemia): 360 nM
- TGI (RPMI-8226 leukemia): 3.69 µM
- GI50 (SNB-75 CNS): 152 nM
- TGI (SNB-75 CNS): 3.27 µM
- GI50 (HCC-2998 colon): 1500 nM
- TGI (HCC-2998 colon): 13.4 µM
- GI50 (SK-MEL-2 melanoma): 11.1 µM
- TGI (SK-MEL-2 melanoma): 39.4 µM
- GI50 (SF-295 CNS): 320 nM
- TGI (SF-295 CNS): 11.7 µM
- GI50 (HT29 colon): 387 nM
- TGI (HT29 colon): > 38.1 µM
- GI50 (MDA-MB-231 breast): 2310 nM
- TGI (MDA-MB-231 breast): 16.8 µM
- GI50 (SF-539 CNS): 333 nM
- TGI (SF-539 CNS): 5.09 µM
- GI50 (NCI-H23 lung): 643 nM
- TGI (NCI-H23 lung): 17.4 µM
- GI50 (RXF 393 renal): 227 nM
- TGI (RXF 393 renal): 825 nM
- GI50 (HCT-116 colon): 448 nM
- TGI (HCT-116 colon): 13.9 µM
- GI50 (UACC-257 melanoma): 15.9 µM
- TGI (UACC-257 melanoma): 59.5 µM
- GI50 (OVCAR-4 ovarian): 2670 nM
- TGI (OVCAR-4 ovarian): > 95 µM
- GI50 (CCRF-CEM leukemia): 377 nM
- TGI (CCRF-CEM leukemia): > 43.4 µM
- GI50 (NCI/ADR-RES ovarian): 400 nM
- TGI (NCI/ADR-RES ovarian): 10 µM
- GI50 (A549 NSCLC): 699 nM
- TGI (A549 NSCLC): > 100 µM
- GI50 (HOP-92 NSCLC): 1510 nM
- TGI (HOP-92 NSCLC): 17.9 µM
- GI50 (BT-549 breast): 1010 nM
- TGI (BT-549 breast): 12.3 µM
- GI50 (SK-MEL-28 melanoma): 4.35 µM
- TGI (SK-MEL-28 melanoma): 29.1 µM
- GI50 (UO-31 renal): 831 nM
- TGI (UO-31 renal): 40.8 µM
- GI50 (OVCAR-3 ovarian): 337 nM
- TGI (OVCAR-3 ovarian): 4.07 µM
- GI50 (LOX IMVI melanoma): 515 nM
- TGI (LOX IMVI melanoma): 15.7 µM
- GI50 (NCI-H226 lung): 1140 nM
- TGI (NCI-H226 lung): 23.5 µM
- GI50 (HOP-62 NSCLC): 603 nM
- TGI (HOP-62 NSCLC): 25.5 µM
- GI50 (IGROV1 ovarian): 756 nM
- TGI (IGROV1 ovarian): 22.8 µM
- GI50 (M14 melanoma): 372 nM
- TGI (M14 melanoma): 9.98 µM
- GI50 (ACHN renal): 593 nM
- TGI (ACHN renal): 41.1 µM
- GI50 (HCT-15 colon): 425 nM
- TGI (HCT-15 colon): 14 µM
- GI50 (SK-MEL-5 melanoma): 363 nM
- TGI (SK-MEL-5 melanoma): 12.7 µM
- GI50 (KM12 colon): 486 nM
- TGI (KM12 colon): 15.2 µM
- GI50 (OVCAR-5 ovarian): 1480 nM
- TGI (OVCAR-5 ovarian): 23.4 µM
- GI50 (K-562 leukemia): 324 nM
- TGI (K-562 leukemia): > 100 µM
- GI50 (SK-OV-3 ovarian): 1160 nM
- TGI (SK-OV-3 ovarian): 69.1 µM
- GI50 (SNB-19 CNS): 2340 nM
- TGI (SNB-19 CNS): 34.8 µM
- GI50 (T-47D breast): 471 nM
- TGI (T-47D breast): 58.8 µM
- GI50 (NCI-H460 lung): 402 nM
- TGI (NCI-H460 lung): 11.6 µM
- GI50 (COLO 205 colon): 431 nM
- TGI (COLO 205 colon): 13 µM
- GI50 (TK-10 renal): 19.6 µM
- TGI (TK-10 renal): > 100 µM
